{"source": "paper PMC7137270", "about": "“Determination of parecoxib and valdecoxib in rat plasma by UPLC-MS/MS and its application to pharmacokinetics studies” (BMC Pharmacology & Toxicology, 2020)", "key": {"[1]": {"experiment": "Stability of analytes in rat plasma (short-term, long-term, freeze/thaw)", "type": "in vitro ADME", "settings": "n = 6; for Freeze/thaw (−20 °C to room temperature) RE: three cycles", "description": "The stability of the samples (including QC and IS) in rat plasma was determined by placing samples (n = 6) in three settings. Of those settings, the short-term stability was determined via leaving the samples at room temperature for 24 h. For long-term stability evaluation, the samples went through 3 weeks of storage at − 20 °C before measurement. The stability of samples after freeze-thaw treatment was assessed by performing freeze/thaw cycles on each sample three times prior to analysis. The fresh samples were prepared as a negative control. The acceptable bias was considered great stability when it was within ±15%. […]"}, "[2]": {"design": "method as in PMID 11519767", "settings": "control of acute pain, specific dose of PCX; cited from earlier work"}, "[3]": {"experiment": "Pharmacokinetic study in rats after sublingual vein administration of parecoxib", "type": "in vivo", "settings": "male, Sprague Dawley, rat plasma, sublingual vein administration of 5 mg/kg PCX, n = 6; for MRT last: read-out: MRT(0-t); for MRT inf: read-out: MRT(0-∞)", "description": "The average weight range of 200–220 g male Sprague Dawley (SD) was obtained from the laboratory animal center of the Wenzhou Medical University (Wenzhou, China, License No. SCXK [ZJ] 2005–0019). Rats stayed in cages and freely got food and water under a stable temperature range of 24–26 °C and a controllable 12 h light/dark cycle apparatus. Animal protocols were approved by the Institutional animal experimentation Committee of the Wenzhou Medical University. A total of 12 SD rats were separated into two isolated groups, including the experimental group (n = 6) and the control group (n = 6). Fasting was carried out for 12 h before assays, and only water was freely accessible. The rats were treated with […] PCX intravenously, which was equivalent to 56 mg for an individual of 70 kg human body weight (regular range in the clinic is from 40 to 80 mg). 0.3 ml of blood samples were collected and stabilized in heparinized tubes at each given time point (0, 0.083, 0.167, 0.25, 0.5, 0.75, 1, 2, 3, 4, 6, 8, 10, 12 and 24 h). The plasma samples were separated through centrifugation at 3000 r/min for 10 min and carefully collected the supernatant and stored at − 20 °C before analysis. All pharmacokinetic data were analyzed by the DAS (Drug and Statistics) software. All rats were sacrificed by CO2 inhalation.\nIn the clinic, the recommended dose of PCX was 40 mg per patient, i.m. or i.v., and the total daily dose was not more than 80 mg. In the present study, a dose of 5 mg/kg PCX was injected to rats by i.v., which was equivalent to 56 mg for an individual of 70 kg body weight (range of 40–80 mg). The UPLC-MS/MS has effectively monitored the pharmacokinetic changes after administration of […] PCX. Further, the pharmacokinetic parameters were figured out by using the DAS 3.0 software."}, "[4]": {"test_system": "plasma proteins", "settings": "cited from earlier work"}, "[5]": {"design": "method as in PMID 29843006", "settings": "cited from earlier work"}}}
{"smiles": "Cc1ccc(-c2cc(C(F)(F)F)nn2-c2ccc(S(N)(=O)=O)cc2)cc1", "note": "[Celecoxib]", "values": [{"measurement": "Long-term (−20 °C, 3 weeks) RE", "setting": "[1]; 200 ng/mL", "result": "−1.3", "unit": "%"}, {"measurement": "Short-term (room temperature, 24 h) RE", "setting": "[1]; 200 ng/mL", "result": 7.5, "unit": "%"}, {"measurement": "Freeze/thaw (−20 °C to room temperature) RE", "setting": "[1]; 200 ng/mL", "result": 5.8, "unit": "%"}]}
{"smiles": "CCC(=O)NS(=O)(=O)c1ccc(-c2c(-c3ccccc3)noc2C)cc1", "note": "[Parecoxib]", "values": [{"measurement": "onset of analgesia", "setting": "[2]", "result": "7 to 14", "unit": "min"}, {"measurement": "time to peak analgesic effect", "setting": "[2]", "result": "≤ 2", "unit": "h"}, {"measurement": "AUC(0-inf)", "setting": "[3]", "result": "2110 ± 283", "unit": "ng·h/mL"}, {"measurement": "AUC(0-t)", "setting": "[3]", "result": "2110 ± 282", "unit": "ng·h/mL"}, {"measurement": "Cmax", "setting": "[3]", "result": "5070 ± 1210", "unit": "ng/mL"}, {"measurement": "Tmax", "setting": "[3]", "result": 6, "unit": "min"}, {"measurement": "clearance", "setting": "[3]", "result": 40, "unit": "mL/min/kg"}, {"measurement": "half-life", "setting": "[3]", "result": "84 ± 30", "unit": "min"}, {"measurement": "MRT last", "setting": "[3]", "result": "0.4 ± 0.1", "unit": "h"}, {"measurement": "MRT inf", "setting": "[3]", "result": "0.4 ± 0.1", "unit": "h"}, {"measurement": "Long-term (−20 °C, 3 weeks) RE", "setting": "[1]; 100 ng/mL", "result": 14.2, "unit": "%"}, {"measurement": "Short-term (room temperature, 24 h) RE", "setting": "[1]; 100 ng/mL", "result": 13.0, "unit": "%"}, {"measurement": "Freeze/thaw (−20 °C to room temperature) RE", "setting": "[1]; 100 ng/mL", "result": 14.9, "unit": "%"}, {"measurement": "Long-term (−20 °C, 3 weeks) RE", "setting": "[1]; 800 ng/mL", "result": 12.7, "unit": "%"}, {"measurement": "Short-term (room temperature, 24 h) RE", "setting": "[1]; 800 ng/mL", "result": 10.2, "unit": "%"}, {"measurement": "Freeze/thaw (−20 °C to room temperature) RE", "setting": "[1]; 800 ng/mL", "result": 14.2, "unit": "%"}, {"measurement": "Long-term (−20 °C, 3 weeks) RE", "setting": "[1]; 8000 ng/mL", "result": 14.3, "unit": "%"}, {"measurement": "Short-term (room temperature, 24 h) RE", "setting": "[1]; 8000 ng/mL", "result": "−10.5", "unit": "%"}, {"measurement": "Freeze/thaw (−20 °C to room temperature) RE", "setting": "[1]; 8000 ng/mL", "result": "−7.9", "unit": "%"}]}
{"smiles": "Cc1onc(-c2ccccc2)c1-c1ccc(S(N)(=O)=O)cc1", "note": "[Valdecoxib]", "values": [{"measurement": "AUC(0-inf)", "setting": "[3]", "result": "4370 ± 1530", "unit": "ng·h/mL"}, {"measurement": "AUC(0-t)", "setting": "[3]", "result": "4190 ± 1590", "unit": "ng·h/mL"}, {"measurement": "Cmax", "setting": "[3]", "result": "701 ± 92.6", "unit": "ng/mL"}, {"measurement": "Tmax", "setting": "[3]", "result": "48 ± 12", "unit": "min"}, {"measurement": "clearance", "setting": "[3]", "result": 20, "unit": "mL/min/kg"}, {"measurement": "half-life", "setting": "[3]", "result": "186 ± 66", "unit": "min"}, {"measurement": "MRT last", "setting": "[3]", "result": "4.1 ± 1", "unit": "h"}, {"measurement": "MRT inf", "setting": "[3]", "result": "4.8 ± 1.1", "unit": "h"}, {"measurement": "bound to plasma proteins", "setting": "[4]", "result": 98, "unit": "%"}, {"measurement": "fraction of VCX in the circulation metabolized to hydroxylated VCX", "setting": "[5]", "result": "approximately 10%"}, {"measurement": "Long-term (−20 °C, 3 weeks) RE", "setting": "[1]; 5 ng/mL", "result": "−1.4", "unit": "%"}, {"measurement": "Short-term (room temperature, 24 h) RE", "setting": "[1]; 5 ng/mL", "result": "−6.7", "unit": "%"}, {"measurement": "Freeze/thaw (−20 °C to room temperature) RE", "setting": "[1]; 5 ng/mL", "result": 5.2, "unit": "%"}, {"measurement": "Long-term (−20 °C, 3 weeks) RE", "setting": "[1]; 40 ng/mL", "result": 13.2, "unit": "%"}, {"measurement": "Short-term (room temperature, 24 h) RE", "setting": "[1]; 40 ng/mL", "result": 12, "unit": "%"}, {"measurement": "Freeze/thaw (−20 °C to room temperature) RE", "setting": "[1]; 40 ng/mL", "result": 14.2, "unit": "%"}, {"measurement": "Long-term (−20 °C, 3 weeks) RE", "setting": "[1]; 400 ng/mL", "result": 3.2, "unit": "%"}, {"measurement": "Short-term (room temperature, 24 h) RE", "setting": "[1]; 400 ng/mL", "result": 3.2, "unit": "%"}, {"measurement": "Freeze/thaw (−20 °C to room temperature) RE", "setting": "[1]; 400 ng/mL", "result": 9.5, "unit": "%"}]}
